Source: patent US7560458B2, “Triazolopyrimidine derivatives as glycogen synthase kinase 3 inhibitors” (Janssen Pharmaceutica, N.V., priority 2003, dated 2009)
Where a name gives a salt, the structure may show the parent alone.

What was measured:
GSK3β = GSK3β (Homo sapiens, UniProt P49841); assay: GSK3beta assay (SPA, biotinylated phosphorylated CREB peptide, ATP-P33); type: biochemical; settings: −log IC50 (M); given as ranges (>8; 7-8; <7); read-out: pIC50 (GSK3beta) (converted)
How it was run: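 Radiometric SPA at room temperature, pH 7.4 Tris/MgCl2/DTT/BSA/glycerol, with 5.7 ng/μl GSK3β, 5 μM biotinylated phospho-CREB peptide, 1 μM ATP plus 33P-ATP for 1 h. Stopped with streptavidin SPA beads, counted after overnight settling; % inhibition versus no-compound control, IC50 from dose-response curve.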

GSK3alpha = GSK3alpha (Homo sapiens, UniProt P49840); assay: GSK3alpha assay (same as the GSK3beta assay, GSK3alpha 0.25 ng/μl); type: biochemical; settings: −log IC50 (M); given as ranges (>8; 7-8; <7); read-out: pIC50 (GSK3alpha) (converted)
Sequence of GSK3alpha (P49840 whole entry, species assumed): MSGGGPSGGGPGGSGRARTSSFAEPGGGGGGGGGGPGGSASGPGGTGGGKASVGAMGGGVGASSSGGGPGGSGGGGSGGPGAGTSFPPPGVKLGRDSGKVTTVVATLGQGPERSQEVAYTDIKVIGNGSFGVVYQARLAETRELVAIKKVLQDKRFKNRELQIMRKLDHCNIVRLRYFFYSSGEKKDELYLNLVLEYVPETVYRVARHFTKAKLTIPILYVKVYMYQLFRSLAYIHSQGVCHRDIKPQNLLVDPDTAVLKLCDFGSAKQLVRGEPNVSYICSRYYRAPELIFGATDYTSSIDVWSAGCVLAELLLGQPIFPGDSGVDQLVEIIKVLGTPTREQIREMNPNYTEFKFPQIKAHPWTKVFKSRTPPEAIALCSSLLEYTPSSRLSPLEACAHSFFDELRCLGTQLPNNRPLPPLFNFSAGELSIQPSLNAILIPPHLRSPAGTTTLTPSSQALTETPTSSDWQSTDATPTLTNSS
How it was run: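 GSK3α at 0.25 ng/μl phosphorylated 5 μM biotinylated phospho-CREB peptide with 1 μM ATP and 33P-ATP for 1 h at room temperature, in 25 mM Tris pH 7.4 with 10 mM MgCl2 and 1 mM DTT. Phosphorylated peptide was captured on streptavidin SPA beads and counted. IC50 was taken from dose-response curves.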

Sequence of GSK3β (P49841 whole entry, species assumed): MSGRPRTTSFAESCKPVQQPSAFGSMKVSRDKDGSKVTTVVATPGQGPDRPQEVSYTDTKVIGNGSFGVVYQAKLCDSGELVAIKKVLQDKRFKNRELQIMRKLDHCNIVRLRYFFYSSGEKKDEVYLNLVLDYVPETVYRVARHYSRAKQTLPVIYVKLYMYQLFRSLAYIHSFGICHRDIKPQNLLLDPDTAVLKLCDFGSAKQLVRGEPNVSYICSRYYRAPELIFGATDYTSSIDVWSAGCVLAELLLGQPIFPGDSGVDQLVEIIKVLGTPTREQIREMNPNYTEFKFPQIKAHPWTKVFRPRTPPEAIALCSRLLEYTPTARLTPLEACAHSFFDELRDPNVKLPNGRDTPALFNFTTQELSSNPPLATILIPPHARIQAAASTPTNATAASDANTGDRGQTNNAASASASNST

Row | Compound | IC50 (GSK3β) | IC50 (GSK3alpha) | melting point
1 | CCOC(=O)/C=C/c1cccc(Nc2ncc3nnn(-c4cccc(F)c4)c3n2)c1 [Compound 9] | < 1e-08 M | < 1e-08 M | 214 to 218.1 °C
2 | N#Cc1ccc(Nc2ncc3nnn(-c4cccc(F)c4)c3n2)cc1Cl [Compound 3] | < 1e-08 M | < 1e-08 M | > 260 °C
3 | COc1cccc(-n2nnc3cnc(Nc4cccc(C#N)c4)nc32)c1 [Compound 55] | < 1e-08 M | < 1e-08 M | 228 to 231 °C
4 | CC(=O)c1cccc(Nc2ncc3nnn(-c4cccc(F)c4)c3n2)c1 [Compound 2] | < 1e-08 M | < 1e-08 M | 220 to 224 °C
5 | NS(=O)(=O)c1cccc(Nc2ncc3nnn(-c4cccc(F)c4)c3n2)c1 [Compound 1] | < 1e-08 M | < 1e-08 M | 177 °C
6 | CC(=O)NCc1cccc(Nc2ncc3nnn(-c4cccc(C(=O)O)c4)c3n2)c1 [Compound 76] | – | – | > 260 °C
7 | COCCOCc1cccc(-n2nnc3cnc(Nc4ccc(F)cc4)nc32)c1 [Compound 287] | < 1e-08 M | < 1e-08 M | 148 °C
8 | Fc1cccc(-n2nnc3cnc(Nc4cccc(Br)c4)nc32)c1 [Compound 7] | < 1e-08 M | < 1e-08 M | 212 to 213 °C
9 | NS(=O)(=O)c1cccc(Nc2ncc3nnn(-c4cccc(-c5cnco5)c4)c3n2)c1 [Compound 57] | < 1e-08 M | < 1e-08 M | > 250 °C
10 | CC(O)c1cccc(Nc2ncc3nnn(-c4cccc(F)c4)c3n2)c1 (centres unmarked) [Compound 27] | < 1e-08 M | < 1e-08 M | 150 to 154 °C
11 | C[S+]([O-])c1cccc(Nc2ncc3nnn(-c4cccc(F)c4)c3n2)c1 (centres unmarked) [Compound 152] | < 1e-08 M | < 1e-08 M | 168 to 172 °C
12 | Nc1cccc(Nc2ncc3nnn(-c4cccc(F)c4)c3n2)c1 (as salt: HCl) [Compound 12] | – | – | 224 °C
13 | COCc1cccc(-n2nnc3cnc(Nc4cccc(S(C)(=O)=O)c4)nc32)c1 [Compound 96] | 1e-08 to 1e-07 M | 1e-08 to 1e-07 M | –
14 | O=C(O)c1ccc(Nc2ncc3nnn(-c4cccc(F)c4)c3n2)cc1O [Compound 136] | < 1e-08 M | < 1e-08 M | –
15 | N#CCc1cccc(-n2nnc3cnc(Nc4cccc(CCO)c4)nc32)c1 [Compound 276] | < 1e-08 M | < 1e-08 M | –
16 | NC(=O)c1cccc(-n2nnc3cnc(Nc4ccc(C(=O)O)cc4)nc32)c1 [Compound 228] | < 1e-08 M | < 1e-08 M | –
17 | N#CCc1cccc(-n2nnc3cnc(Nc4ccc(C(N)=O)cc4)nc32)c1 [Compound 274] | < 1e-08 M | < 1e-08 M | –
18 | CS(=O)(=O)Nc1cccc(Nc2ncc3nnn(-c4cccc(CNC(=O)C5CC5)c4)c3n2)c1 [Compound 202] | < 1e-08 M | < 1e-08 M | –
19 | COCc1cccc(-n2nnc3cnc(Nc4ccc(C(=O)N(C)C)cc4)nc32)c1 [Compound 334] | < 1e-08 M | < 1e-08 M | –
20 | COCc1cccc(-n2nnc3cnc(Nc4cccc(CNC(C)=O)c4)nc32)c1 [Compound 80] | < 1e-08 M | < 1e-08 M | –
21 | COCC(=O)NCc1cccc(-n2nnc3cnc(Nc4ccc(S(N)(=O)=O)cc4)nc32)c1 [Compound 174] | < 1e-08 M | < 1e-08 M | –

Row | Compound | IC50 (GSK3β) | IC50 (GSK3alpha) | melting point
22 | OCCc1ccc(Nc2ncc3nnn(-c4ccc(CCO)cc4)c3n2)cc1 [Compound 293] | > 1e-07 M | < 1e-08 M | –
23 | COCCOc1cccc(-n2nnc3cnc(Nc4ccc(CNCC(F)(F)F)cc4)nc32)c1 [Compound 312] | 1e-08 to 1e-07 M | < 1e-08 M | –
24 | CCOC(=O)NCc1cccc(-n2nnc3cnc(Nc4cccc(NS(C)(=O)=O)c4)nc32)c1 [Compound 217] | < 1e-08 M | < 1e-08 M | –
25 | COCC(=O)NCc1cccc(-n2nnc3cnc(Nc4ccc(NC(C)=O)c(C(=O)OC)c4)nc32)c1 [Compound 157] | < 1e-08 M | < 1e-08 M | –
26 | CCOc1cccc(Nc2ncc3nnn(-c4cccc(F)c4)c3n2)c1 [Compound 23] | < 1e-08 M | < 1e-08 M | –
27 | COCc1cccc(-n2nnc3cnc(Nc4ccc(S(N)(=O)=O)cc4)nc32)c1 [Compound 146] | < 1e-08 M | < 1e-08 M | –
28 | N#Cc1ccc(Nc2ncc3nnn(-c4cccc(CNC(=O)C5CC5)c4)c3n2)cc1 [Compound 203] | 1e-08 to 1e-07 M | < 1e-08 M | –
29 | O=C(O)c1ccc(Nc2ncc3nnn(-c4ccccc4)c3n2)cc1 [Compound 123] | < 1e-08 M | < 1e-08 M | –
30 | NCc1ccc(Nc2ncc3nnn(-c4cccc(CCO)c4)c3n2)cc1 [Compound 310] | < 1e-08 M | < 1e-08 M | –
31 | COCc1cccc(-n2nnc3cnc(Nc4ccc(C(=O)O)c(C)c4)nc32)c1 [Compound 249] | < 1e-08 M | < 1e-08 M | –
32 | CS(=O)(=O)Nc1cccc(Nc2ncc3nnn(-c4cccc(S(N)(=O)=O)c4)c3n2)c1 [Compound 58] | < 1e-08 M | < 1e-08 M | –
33 | COc1cccc(-n2nnc3cnc(Nc4cccc(C(=O)O)c4)nc32)c1 [Compound 66] | 1e-08 to 1e-07 M | 1e-08 to 1e-07 M | –
34 | NCc1cccc(-n2nnc3cnc(Nc4ccc(F)cc4)nc32)c1 [Compound 279] | 1e-08 to 1e-07 M | 1e-08 to 1e-07 M | –
35 | N#CCc1cccc(-n2nnc3cnc(Nc4cccc(C(=O)NCCO)c4)nc32)c1 [Compound 275] | < 1e-08 M | < 1e-08 M | –
36 | CCOC(=O)NCc1cccc(-n2nnc3cnc(Nc4cccc(COC)c4)nc32)c1 [Compound 216] | < 1e-08 M | < 1e-08 M | –
37 | CC(C)CC(=O)NCc1cccc(-n2nnc3cnc(Nc4ccc(C(=O)O)cc4)nc32)c1 [Compound 193] | 1e-08 to 1e-07 M | 1e-08 to 1e-07 M | –
38 | O=C(O)c1ccc(Nc2ncc3nnn(-c4cccc(F)c4)c3n2)cc1Cl [Compound 137] | < 1e-08 M | < 1e-08 M | –
39 | COc1ccc(Nc2ncc3nnn(-c4cccc(CNC(=O)C5CC5)c4)c3n2)cn1 [Compound 209] | 1e-08 to 1e-07 M | 1e-08 to 1e-07 M | –
40 | CNC(=O)c1ccc(Nc2ncc3nnn(-c4cccc(OCCOC)c4)c3n2)cc1 [Compound 325] | 1e-08 to 1e-07 M | < 1e-08 M | –
41 | NC(=O)Cc1cccc(Nc2ncc3nnn(-c4cccc(F)c4)c3n2)c1 [Compound 153] | < 1e-08 M | < 1e-08 M | –
42 | NS(=O)(=O)c1ccc(Nc2ncc3nnn(-c4cccc(CCO)c4)c3n2)cc1 [Compound 169] | < 1e-08 M | < 1e-08 M | –

Row | Compound | IC50 (GSK3β) | IC50 (GSK3alpha) | melting point
43 | CC(=O)Nc1cccc(Nc2ncc3nnn(-c4ccccc4)c3n2)c1 [Compound 59] | < 1e-08 M | < 1e-08 M | –
44 | COc1ccc(Nc2ncc3nnn(-c4cccc(F)c4)c3n2)cn1 [Compound 91] | < 1e-08 M | < 1e-08 M | –
45 | COCc1cccc(Nc2ncc3nnn(-c4ccccc4)c3n2)c1 [Compound 61] | < 1e-08 M | < 1e-08 M | –
46 | CC(=O)NCc1cccc(-n2nnc3cnc(Nc4cccc(S(C)(=O)=O)c4)nc32)c1 [Compound 113] | < 1e-08 M | < 1e-08 M | –
47 | COc1cccc(-n2nnc3cnc(Nc4cccc(S(C)(=O)=O)c4)nc32)c1 [Compound 53] | < 1e-08 M | < 1e-08 M | –
48 | NC(=O)c1ccc(Nc2ncc3nnn(-c4cccc(CNC(=O)C56CC7CC(CC(C7)C5)C6)c4)c3n2)cc1 [Compound 237] | 1e-08 to 1e-07 M | 1e-08 M | –
49 | COCc1cccc(Nc2ncc3nnn(-c4cccc(CNC(=O)C5CC5)c4)c3n2)c1 [Compound 201] | < 1e-08 M | < 1e-08 M | –
50 | CC(C)CC(=O)NCc1cccc(-n2nnc3cnc(Nc4ccc(CCO)cc4)nc32)c1 [Compound 195] | 1e-08 to 1e-07 M | < 1e-08 M | –
51 | COCc1cccc(-n2nnc3cnc(Nc4cccc(S(=O)(=O)NCC(N)=O)c4)nc32)c1 [Compound 141] | 1e-08 to 1e-07 M | 1e-08 to 1e-07 M | –
52 | CC(=O)NCc1cccc(-n2nnc3cnc(Nc4ccc(S(N)(=O)=O)cc4)nc32)c1 [Compound 248] | < 1e-08 M | < 1e-08 M | –
53 | CC(=O)NCc1cccc(-n2nnc3cnc(Nc4cccc(NC(C)=O)c4)nc32)c1 [Compound 109] | < 1e-08 M | < 1e-08 M | –
54 | COCCOCc1cccc(-n2nnc3cnc(Nc4ccc(Cl)cc4)nc32)c1 [Compound 336] | < 1e-08 M | < 1e-08 M | –
55 | N#Cc1cccc(Nc2ncc3nnn(-c4cccc(Br)c4)c3n2)c1 [Compound 33] | < 1e-08 M | < 1e-08 M | –
56 | CCOC(=O)NCc1cccc(-n2nnc3cnc(Nc4cccc(C#N)c4)nc32)c1 [Compound 214] | < 1e-08 M | < 1e-08 M | –
57 | NC(=O)c1cccc(Nc2ncc3nnn(-c4ccccc4)c3n2)c1 [Compound 38] | < 1e-08 M | < 1e-08 M | –
58 | COc1cccc(-n2nnc3cnc(Nc4ccc(O)c(C(=O)O)c4)nc32)c1 [Compound 72] | 1e-08 to 1e-07 M | < 1e-08 M | –
59 | CC(C)CC(=O)NCc1cccc(-n2nnc3cnc(Nc4ccc(S(N)(=O)=O)cc4)nc32)c1 [Compound 197] | < 1e-08 M | < 1e-08 M | –
60 | COCc1cccc(-n2nnc3cnc(Nc4cccc(CO)c4)nc32)c1 [Compound 144] | < 1e-08 M | < 1e-08 M | –
61 | CS(=O)(=O)Nc1cccc(Nc2ncc3nnn(-c4cccc(CNC(=O)C56CC7CC(CC(C7)C5)C6)c4)c3n2)c1 [Compound 235] | 1e-08 to 1e-07 M | < 1e-08 M | –
62 | NS(=O)(=O)c1ccc(Nc2ncc3nnn(-c4cccc(C(=O)NCCO)c4)c3n2)cc1 [Compound 227] | 1e-08 to 1e-07 M | < 1e-08 M | –
63 | CC(=O)c1cccc(Nc2ncc3nnn(-c4ccccc4)c3n2)c1 [Compound 60] | < 1e-08 M | < 1e-08 M | –
